Assays:
[1] = target: T1, Melanin-concentrating hormone receptor 1 (Homo sapiens, UniProt Q99705); experiment: Functional antagonism of MCH-R1 expressed in HEK293 cells; assay type: cell-based
[2] = Serum concentration in DIO mice 2 hr post 20mg/kg peroral dose; assay type: ADME, organism-based; conditions: mouse, po, read-out: Serum conc
Mus musculus = experiment: Percent weight loss in DIO mice 4 days after 20 mg/kg peroral dose; assay type: functional; conditions: route oral
[3] = target: T1, Melanin-concentrating hormone receptor 1; experiment: Inhibition of binding to MCH-R1
[4] = target: T2, Voltage-gated inwardly rectifying potassium channel KCNH2 (Homo sapiens, UniProt Q12809); experiment: Inhibition of binding to hERG
hERG (KCNH2) = hERG (KCNH2) (Homo sapiens, UniProt Q12809); experiment: Percent inhibition of binding to hERG at10uM
[5] = target: T2, Voltage-gated inwardly rectifying potassium channel KCNH2; experiment: Prolonged QTc interval in anaesthetized dogs after 15min infusion at 30 mg/kg compared to vehicle; conditions: dog, in vivo, iv, 0.25 h
[6] = Relative concentration in DIO mouse brain over serum 2 hr post 20mg/kg peroral dose; assay type: ADME, organism-based; conditions: po

T2 sequence (Q12809 whole entry): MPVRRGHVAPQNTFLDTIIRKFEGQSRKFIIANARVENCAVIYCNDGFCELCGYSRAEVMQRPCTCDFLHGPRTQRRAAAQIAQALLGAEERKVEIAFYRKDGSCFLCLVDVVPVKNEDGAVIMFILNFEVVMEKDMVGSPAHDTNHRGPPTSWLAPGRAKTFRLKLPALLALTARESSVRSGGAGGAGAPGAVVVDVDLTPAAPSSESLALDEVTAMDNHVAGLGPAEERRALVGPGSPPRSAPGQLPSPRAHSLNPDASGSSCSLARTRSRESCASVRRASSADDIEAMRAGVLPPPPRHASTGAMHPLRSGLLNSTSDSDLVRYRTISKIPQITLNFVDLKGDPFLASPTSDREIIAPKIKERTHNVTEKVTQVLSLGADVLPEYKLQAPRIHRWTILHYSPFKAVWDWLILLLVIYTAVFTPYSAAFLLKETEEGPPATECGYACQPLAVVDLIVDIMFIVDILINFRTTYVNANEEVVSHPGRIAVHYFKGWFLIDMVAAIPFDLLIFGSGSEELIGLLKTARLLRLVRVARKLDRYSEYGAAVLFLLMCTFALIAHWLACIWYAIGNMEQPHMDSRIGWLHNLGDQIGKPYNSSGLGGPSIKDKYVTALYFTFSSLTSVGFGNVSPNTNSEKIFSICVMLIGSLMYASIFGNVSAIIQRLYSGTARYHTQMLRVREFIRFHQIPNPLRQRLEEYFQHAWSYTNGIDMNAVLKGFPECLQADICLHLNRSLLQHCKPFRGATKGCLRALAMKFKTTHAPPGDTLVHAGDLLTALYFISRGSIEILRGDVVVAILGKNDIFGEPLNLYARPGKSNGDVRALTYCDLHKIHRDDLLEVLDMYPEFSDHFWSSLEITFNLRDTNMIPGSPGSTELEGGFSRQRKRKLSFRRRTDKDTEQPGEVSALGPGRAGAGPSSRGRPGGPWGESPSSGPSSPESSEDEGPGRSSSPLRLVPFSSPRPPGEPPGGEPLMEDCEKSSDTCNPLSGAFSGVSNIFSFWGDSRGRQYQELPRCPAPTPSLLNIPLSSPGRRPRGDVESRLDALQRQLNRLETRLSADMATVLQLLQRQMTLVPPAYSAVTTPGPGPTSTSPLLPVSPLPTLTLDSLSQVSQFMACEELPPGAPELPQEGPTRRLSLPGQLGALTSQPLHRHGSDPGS
T1 sequence (Q99705 whole entry): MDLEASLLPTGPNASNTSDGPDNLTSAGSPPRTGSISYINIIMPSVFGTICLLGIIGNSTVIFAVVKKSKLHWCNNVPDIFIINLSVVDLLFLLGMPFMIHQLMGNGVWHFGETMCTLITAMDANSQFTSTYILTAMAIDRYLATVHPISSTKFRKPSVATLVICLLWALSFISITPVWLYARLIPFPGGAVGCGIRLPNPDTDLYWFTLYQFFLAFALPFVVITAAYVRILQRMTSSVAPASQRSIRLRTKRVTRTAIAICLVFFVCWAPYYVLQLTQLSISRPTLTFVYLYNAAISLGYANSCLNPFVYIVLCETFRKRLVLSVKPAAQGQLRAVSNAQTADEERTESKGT
Chain of hERG (KCNH2) (Q12809 whole entry, the tested form may be a part): as the sequence (Q12809 whole entry) above

Structure (SMILES)	Ki [1] [µM]	concentration at 2 h [2] [µM]	Weight loss (Mus musculus) [%]	IC50 [4] [µM]	further results
CCN(CC)Cc1ccc2c(c1)CC[C@H](N1CCN(CCc3cccc(C(F)(F)F)c3)CC1=O)C2	0.093	–	–	–	–
CCN(CC)Cc1ccc2c(c1)CC[C@H](N1CCN(CCC3CCCS3)CC1=O)C2 (stereo partly drawn)	0.047	–	–	–	–
O=C1CN(CCc2ccc(F)cc2)CCN1[C@H]1CCc2cc(CNCC(F)(F)F)ccc2C1	–	–	–	–	inhibition at 10 µM (hERG (KCNH2)): > 50%
CCN(CC)Cc1ccc2c(c1)CC[C@H](N1CCN(CCC3CCCCC3)CC1=O)C2	0.032	–	–	–	–
CN(C)C(=O)C(CO)N(C)Cc1ccc2c(c1)CC[C@H](N1CCN(CCc3ccc(F)cc3)CC1=O)C2 (stereo partly drawn)	–	–	–	25	–

Second part, led by results:

Ki [1] [µM]	concentration at 2 h [2] [µM]	Structure (SMILES)	Weight loss (Mus musculus) [%]	IC50 [4] [µM]	further results
–	2	CCN(CC)Cc1ccc2c(c1)CC[C@H](N1CCN(CCc3ccc(F)cc3)CC1=O)C2	4	–	Ki [3]: 0.015 µM
52	–	O=C1CN(CCc2ccc(F)cc2)CCN1[C@H]1CCc2cc(Cn3ccnc3)ccc2C1	–	4	–
8.7	–	O=C1CN(CCc2ccc(F)cc2)CCN1[C@H]1CCc2cc(CN3CCC(C(F)(F)F)CC3)ccc2C1	–	2	–
–	16	O=C1CN(CCc2ccc(F)cc2)CCN1[C@H]1CCc2cc(CN3CCS(=O)(=O)CC3)ccc2C1	<2	24	–
15	–	O=C1CN(CCc2ccc(F)cc2)CCN1[C@H]1CCc2cc(CN3CCOCC3)ccc2C1	–	11	–
30	9	CS(=O)(=O)N1CCN(Cc2ccc3c(c2)CC[C@H](N2CCN(CCc4ccc(F)cc4)CC2=O)C3)CC1	3	13	–
0.0033	–	CCN(CC)Cc1ccc2c(c1)CC[C@H](N1CCN(CCc3ccc(Cl)cc3)CC1=O)C2	–	–	–
16	4	CC(=O)N1CCN(Cc2ccc3c(c2)CC[C@H](N2CCN(CCc4ccc(F)cc4)CC2=O)C3)CC1	<2	25	QT interval [5]: Active p<0.05; Kp at 2 h [6]: 0.3
